According to patent publication US7560468B2, “Substituted 1,4,8-triazaspiro[4,5]decan-2-one compounds” (Gruenenthal GmbH, priority 2004, dated 2009):

Tests used:
[1] = molecular target: human CB2 receptor (Homo sapiens, UniProt P34972); assay: Affinity to the cannabinoid receptor CB2, displacement of [3H]-CP 55,940; settings: for Inhibition CB2 10 μM, % inhibition: membranes of HEK 293EBNA cells with human CB2 receptor; for Ki: CB2, Cheng Prusoff correction of IC50; for inhibition at 10 µM: read-out: Inhibition CB2 10 μM, % inhibition
Protocol: The radioligand used was tritium-labeled 5-(1,1-dimethylheptyl)-2-(5-hydroxypropyl)cyclohexyl)-1-alpha,2-beta,5-alpha)-phenol (^[3]H—CP 55,940 with 103.4 of Ci/mmol, 1 m Ci/mL). Determination was carried out in a test buffer comprising 50 mM of Tris-HCl, 2.5 mm of EDTA, 5 mm of MgCl2 and 1.0 mg/mL of fatty acid-free BSA. The test substances were in each case dissolved in DMSO.
The affinity of the compounds of the invention to the CB2 receptor is determined by their ability to displace ^[3]H—CP from 55,940 of CB2 receptors in membranes of HEK 293 EBNA cells. For this purpose 8 μg of membranes (20 mL of a solution of membranes in a concentration of 400 g/ml) are incubated in wells of a microtiter plate with a 0.33 nM of solution of [3]H-CP 55,949 (120 of Ci/mmol) in a total volume of test buffer of 200 μL for 90 minutes at 30° C.
Subsequently, either the test substances or WIN 55,212-2 for determination the non-specific binding are placed, dissolved in each case in dimethyl sulphoxide, in the wells so that in each case a concentration of the relevant substances of 10 μM is obtained.
Incubation is continued for a further 40 minutes at 30° C. dc. […] The filters are washed nine times with 0.5 mL of ice-cold washing buffer (50 nM of Tris-HCl, 5 mM of MgCl2, 2.5 mm of EDTA, 2% of BSA, pH 7.4), air-dried, placed in scintillation liquid, and the radioactivity is determined with the aid of a scintillation counter.
The percentage displacement of the radio-active ligand ^[3]H—CP 55,940 from its binding to the CB2 receptor is indicated as percentage inhibition of the specific binding. In order to determine Ki the IC50 inhibition concentrations are calculated based on of the percentage displacement achieved by the compounds of the general formula I to be tested at various concentrations causing a 50 percent displacement of the radioactive ligands.

[2] = molecular target: T1, 5-HT transporter (Rattus norvegicus, UniProt P31652); assay: Inhibition of 5-HT uptake in synaptosomes; type: biochemical; settings: for inhibition at 1 µM: read-out: Uptake_5-HT, rat, 1 μM, % inhibition
T1 construct: from tissue; host or cells: rat brain synaptosomes (marrow/medulla and pons), P2 fraction

[3] = test system: batrachotoxin (BTX) binding site of the sodium channel; assay: Affinity to the batrachotoxin (BTX) binding site of the sodium channel; settings: rat cerebrocortex synaptosomes, [3H]-batrachotoxinin A20 α-benzoate 10 nM; test concentration not given
[4] = test system: NA transporter; assay: Inhibition of noradrenalin uptake in synaptosomes; type: biochemical

T1 sequence (P31652 whole entry): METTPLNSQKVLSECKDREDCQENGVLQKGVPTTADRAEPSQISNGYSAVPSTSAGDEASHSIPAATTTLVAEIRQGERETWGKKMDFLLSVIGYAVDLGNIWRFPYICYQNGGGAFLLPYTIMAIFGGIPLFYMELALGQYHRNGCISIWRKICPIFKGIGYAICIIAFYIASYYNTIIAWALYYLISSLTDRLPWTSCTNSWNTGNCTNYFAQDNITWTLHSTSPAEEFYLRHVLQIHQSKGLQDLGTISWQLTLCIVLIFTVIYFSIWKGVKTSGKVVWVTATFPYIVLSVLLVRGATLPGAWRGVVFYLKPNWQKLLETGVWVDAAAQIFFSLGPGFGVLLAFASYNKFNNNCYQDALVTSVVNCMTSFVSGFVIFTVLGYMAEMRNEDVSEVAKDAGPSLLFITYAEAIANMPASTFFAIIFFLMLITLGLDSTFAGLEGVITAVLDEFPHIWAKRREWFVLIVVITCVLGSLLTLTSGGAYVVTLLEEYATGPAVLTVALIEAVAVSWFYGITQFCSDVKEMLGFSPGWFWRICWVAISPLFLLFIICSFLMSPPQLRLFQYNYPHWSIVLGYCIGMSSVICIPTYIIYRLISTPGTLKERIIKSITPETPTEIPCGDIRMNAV
Chain of human CB2 receptor (P34972 whole entry): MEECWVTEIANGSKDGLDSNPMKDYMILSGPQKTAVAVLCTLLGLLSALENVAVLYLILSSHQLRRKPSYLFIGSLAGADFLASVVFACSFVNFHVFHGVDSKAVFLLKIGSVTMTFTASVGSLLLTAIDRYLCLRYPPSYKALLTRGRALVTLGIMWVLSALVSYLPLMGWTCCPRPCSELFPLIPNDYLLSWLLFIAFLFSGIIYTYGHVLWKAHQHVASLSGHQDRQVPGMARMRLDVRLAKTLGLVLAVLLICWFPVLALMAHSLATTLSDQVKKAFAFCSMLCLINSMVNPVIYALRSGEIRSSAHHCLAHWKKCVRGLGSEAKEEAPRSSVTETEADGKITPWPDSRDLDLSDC

Molecule: 1,3-Dibenzyl-8-(4-chlorobenzolsulfonyl)-1,4,8-triazaspiro[4,5]decan-2-one [Example 248]
- Inhibition CB2 10 μM, % inhibition [1]: 87%
- Ki [1]: 1.2 µM

Molecule: 1,3-Dibenzyl-8-(4-methoxy-benzolsulfonyl)-1,4,8-triazaspiro[4,5]decan-2-one [Example 249]
- Inhibition CB2 10 μM, % inhibition [1]: 80%
- Ki [1]: 3.5 µM

Molecule: 8-Benzolsulfonyl-1,3-dibenzyl-1,4,8-triazaspiro[4,5]decan-2-one [Example 247]
- Inhibition CB2 10 μM, % inhibition [1]: 72%
- Ki [1]: 4 µM

Molecule: CC(C)C1NC2(CCN(S(=O)(=O)c3ccccc3Cl)CC2)NC1=O (stereo not shown) [Example 8, 8-(2-Chlorobenzolsulfonyl)-3-isopropyl-1,4,8-triazaspiro[4,5]decan-2-one]
- Uptake_5-HT, rat, 1 μM, % inhibition [2]: 55%
- Inhibition CB2 10 μM, % inhibition [1]: 41%

Molecule: O=C1C(Cc2ccccc2)NC2(CCN(S(=O)(=O)c3cccs3)CC2)N1Cc1ccccc1 (stereo not shown) [Example 16, 1,3-Dibenzyl-8-(thiophen-2-sulfonyl)-1,4,8-triazaspiro[4,5]decan-2-one]
- BTX Inhibition [3]: 50
- inhibition at 1 µM [2]: 82%
- inhibition at 10 µM [1]: 58%

Molecule: O=C1C(Cc2ccccc2)NC2(CCN(S(=O)(=O)c3cc(Cl)sc3Cl)CC2)N1Cc1ccccc1 (stereo not shown) [Example 20, 1,3-Dibenzyl-8-(2,5-dichlorothiophen-3-sulfonyl)-1,4,8-triazaspiro[4,5]decan-2-one]
- BTX Inhibition [3]: 54
- inhibition at 1 µM [2]: 81%
- inhibition at 10 µM [1]: 66%

Molecule: Cc1cc(C)c(C)c(S(=O)(=O)N2CCC3(CC2)NC(Cc2ccccc2)C(=O)N3Cc2ccccc2)c1C (stereo not shown) [Example 24, 1,3-Dibenzyl-8-(2,3,5,6-tetramethylbenzolsulfonyl)-1,4,8-triazaspiro[4,5]decan-2-one]
- BTX Inhibition [3]: 67
- Uptake_5-HT, rat, 1 μM, % inhibition [2]: 66%
- Inhibition CB2 10 μM, % inhibition [1]: 56%

Molecule: CCCCN1C(=O)C(Cc2ccccc2)NC12CCN(S(=O)(=O)c1ccc(C(C)(C)CC)cc1)CC2 (stereo not shown) [Example 28, 3-Benzyl-1-butyl-8-[4-(1,1-dimethylpropyl)benzolesulfonyl]-1,4,8-triazaspiro[4,5]decan-2-one]
- BTX Inhibition [3]: 41
- Uptake_5-HT, rat, 1 μM, % inhibition [2]: 75%
- Inhibition CB2 10 μM, % inhibition [1]: 40%

Molecule: COc1cc(C)c(S(=O)(=O)N2CCC3(CC2)NC(Cc2ccccc2)C(=O)N3Cc2ccccc2)c(C)c1C (stereo not shown) [Example 31, 1,3-Dibenzyl-8-(4-methoxy-2,3,6-trimethylbenzolsulfonyl)-1,4,8-triazaspiro[4,5]decan-2-one]
- BTX Inhibition [3]: 82
- Uptake_5-HT, rat, 1 μM, % inhibition [2]: 67%
- Inhibition CB2 10 μM, % inhibition [1]: 57%

Molecule: CCc1ccc(S(=O)(=O)N2CCC3(CC2)NC(Cc2ccccc2)C(=O)N3Cc2ccccc2)cc1 (stereo not shown) [Example 35, 1,3-Dibenzyl-8-(4-ethylbenzolsulfonyl)-1,4,8-triazaspiro[4,5]decan-2-one]
- BTX Inhibition [3]: 54
- Uptake_5-HT, rat, 1 μM, % inhibition [2]: 79%
- Inhibition CB2 10 μM, % inhibition [1]: 61%

Molecule: CCCCN1C(=O)C(Cc2ccccc2)NC12CCN(S(=O)(=O)c1cccc(Cl)c1)CC2 (stereo not shown) [Example 36, 3-Benzyl-1-butyl-8-(3-chlorobenzolsulfonyl)-1,4,8-triazaspiro[4,5]decan-2-one]
- BTX Inhibition [3]: 49
- Uptake_5-HT, rat, 1 μM, % inhibition [2]: 65%
- Inhibition CB2 10 μM, % inhibition [1]: 40%

Molecule: CSCCC1NC2(CCN(S(=O)(=O)c3ccc(F)cc3F)CC2)N(Cc2cc(C)cc(C)c2)C1=O (stereo not shown) [Example 42, 8-(2,4-Difluorobenzolsulfonyl)-1-(3,5-dimethylbenzyl)-3-(2-methylsulfanylethyl)-1,4,8-triazaspiro[4,5]decan-2-one]
- BTX Inhibition [3]: 56
- Inhibition CB2 10 μM, % inhibition [1]: 48%

Molecule: O=C1C(Cc2ccccc2)NC2(CCN(S(=O)(=O)c3ccc([N+](=O)[O-])cc3)CC2)N1Cc1ccccc1 (stereo not shown) [Example 43, 1,3-Dibenzyl-8-(4-nitrobenzolsulfonyl)-1,4,8-triazaspiro[4,5]decan-2-one]
- BTX Inhibition [3]: 51
- Uptake_5-HT, rat, 1 μM, % inhibition [2]: 71%
- Inhibition CB2 10 μM, % inhibition [1]: 62%

Molecule: CCCCOc1ccc(S(=O)(=O)N2CCC3(CC2)NC(Cc2ccccc2)C(=O)N3CC(=O)OCC)cc1 (stereo not shown) [Example 73, Ethyl[3-benzyl-8-(4-butoxy-benzolsulfonyl)-2-oxo-1,4,8-triazaspiro[4,5]dec-1-yl]-acetate]
- BTX Inhibition [3]: 52
- Uptake_5-HT, rat, 1 μM, % inhibition [2]: 80%
- Inhibition CB2 10 μM, % inhibition [1]: 46%

Molecule: CSCCC1NC2(CCN(S(=O)(=O)c3ccccc3Cl)CC2)N(Cc2ccccc2[N+](=O)[O-])C1=O (stereo not shown) [Example 82, 8-(2-Chlorobenzolsulfonyl)-3-(2-methylsulfanylethyl)-1-(2-nitrobenzyl)-1,4,8-triazaspiro[4,5]decan-2-one]
- BTX Inhibition [3]: 71
- Uptake_5-HT, rat, 1 μM, % inhibition [2]: 49%
- Inhibition CB2 10 μM, % inhibition [1]: 56%

Molecule: CCCCN1C(=O)C(C(C)C)NC12CCN(C(=S)NC(C)C)CC2 (stereo not shown) [Example 107, 1-Butyl-3-isopropyl-2-oxo-1,4,8-triazaspiro[4,5]decan-8-thiocarboxylic acid isopropylamide]
- inhibition at 1 µM [2]: 28%
- inhibition at 10 µM [1]: 56%

Molecule: CSCCC1NC2(CCN(C(=S)Nc3cc(C(F)(F)F)ccc3Cl)CC2)N(Cc2ccccc2C#N)C1=O (stereo not shown) [Example 147, 1-(2-Cyanobenzyl)-3-(2-methylsulfanylethyl)-2-oxo-1,4,8-triazaspiro[4,5]decan-8-thiocarboxylic acid (2-chloro-5-trifluoromethylbenzol)amide]
- BTX Inhibition [3]: 81
- Uptake_5-HT, rat, 1 μM, % inhibition [2]: 33%
- Inhibition CB2 10 μM, % inhibition [1]: 48%

Molecule: CC(C)C1NC2(CCN(C(=S)NCc3ccc(F)cc3)CC2)N(Cc2ccccc2)C1=O (stereo not shown) [Example 179, 1-Benzyl-3-isopropyl-2-oxo-1,4,8-triazaspiro[4,5]decan-8-thiocarboxylic acid 4-fluorobenzylamide]
- BTX Inhibition [3]: 58
- inhibition at 1 µM [2]: 47%
- inhibition at 10 µM [1]: 43%

Molecule: CSCCC1NC2(CCN(C(=S)NCc3ccc(F)cc3)CC2)N(Cc2ccc(F)cc2)C1=O (stereo not shown) [Example 182, 1-(4-Fluorobenzyl)-3-(2-methylsulfanylethyl)-2-oxo-1,4,8-triazaspiro[4,5]decan-8-thiocarboxylic acid 4-fluorobenzylamide]
- BTX Inhibition [3]: 69
- inhibition at 1 µM [2]: 30%
- inhibition at 10 µM [1]: 64%

Molecule: O=C1C(Cc2ccccc2)NC2(CCN(C(=S)Nc3cc(C(F)(F)F)ccc3Cl)CC2)N1Cc1ccccc1F (stereo not shown) [Example 188, 3-Benzyl-1-(2-fluorobenzyl)-2-oxo-1,4,8-triazaspiro[4,5]decan-8-thiocarboxylic acid (2-chloro-5-trifluoromethylbenzol)amide]
- BTX Inhibition [3]: 77
- Uptake_5-HT, rat, 1 μM, % inhibition [2]: 59%
- Inhibition CB2 10 μM, % inhibition [1]: 49%

Molecule: CCCCN1C(=O)C(CCSC)NC12CCN(C(=O)NCc1ccc(Cl)c(Cl)c1)CC2 (stereo not shown) [Example 219, 1-Butyl-3-(2-methylsulfanylethyl)-2-oxo-1,4,8-triazaspiro[4,5]decan-8-carboxylic acid 3,4-dichlorobenzylamide]
- BTX Inhibition [3]: 70
- inhibition at 1 µM [2]: 37%
- Uptake (NA), rat, 10 μM, % inhibition [4]: 42%

Molecule: C=CCN1C(=O)C(C(C)C)NC12CCN(C(=O)Nc1ccc(OC(F)(F)F)cc1)CC2 (stereo not shown) [Example 220, 1-Allyl-3-isopropyl-2-oxo-1,4,8-triazaspiro[4,5]decan-8-carboxylic acid (4-trifluoromethoxy-benzol)amide]
- BTX Inhibition [3]: 44
- Uptake_5-HT, rat, 1 μM, % inhibition [2]: 39%
- Uptake (NA), rat, 10 μM, % inhibition [4]: 39%

Molecule: CSCCC1NC2(CCN(C(=O)Nc3ccccc3)CC2)N(Cc2ccccc2C#N)C1=O (stereo not shown) [Example 224, 1-(2-Cyanobenzyl)-3-(2-methylsulfanylethyl)-2-oxo-1,4,8-triazaspiro[4,5]decan-8-carboxylic acid benzolamide]
- BTX Inhibition [3]: 30
- Uptake_5-HT, rat, 1 μM, % inhibition [2]: 37%
- Uptake (NA), rat, 10 μM, % inhibition [4]: 38%

Molecule: CCOC(=O)CN1C(=O)C(Cc2ccccc2)NC12CCN(C(=O)NCc1ccc(Cl)c(Cl)c1)CC2 (stereo not shown) [Example 225, Ethyl[3-benzyl-8-(3,4-dichlorobenzylcarbamoyl)-2-oxo-1,4,8-triazaspiro[4,5]dec-1-yl]-acetate]
- BTX Inhibition [3]: 77
- inhibition at 1 µM [2]: 43%
- Uptake (NA), rat, 10 μM, % inhibition [4]: 33%

Molecule: CCOc1ccc(NC(=O)N2CCC3(CC2)NC(CCSC)C(=O)N3Cc2ccc3ccccc3c2)cc1 (stereo not shown) [Example 231, 3-(2-Methylsulfanylethyl)-1-naphthalin-2-ylmethyl-2-oxo-1,4,8-triazaspiro[4,5]decan-8-carboxylic acid (4-ethoxy-benzol)amide]
- BTX Inhibition [3]: 79
- Uptake_5-HT, rat, 1 μM, % inhibition [2]: 59%
- Inhibition CB2 10 μM, % inhibition [1]: 49%

Molecule: COc1cccc(NC(=O)N2CCC3(CC2)NC(CCSC)C(=O)N3Cc2cccc(C#N)c2)c1 (stereo not shown) [Example 236, 1-(3-Cyanobenzyl)-3-(2-methylsulfanylethyl)-2-oxo-1,4,8-triazaspiro[4,5]decan-8-carboxylic acid (3-methoxy-benzol)amide]
- BTX Inhibition [3]: 42
- Uptake_5-HT, rat, 1 μM, % inhibition [2]: 32%
- Uptake (NA), rat, 10 μM, % inhibition [4]: 34%

Molecule: CSCCC1NC2(CCN(C(=O)Nc3cccc(C#N)c3)CC2)N(Cc2ccc(F)cc2)C1=O (stereo not shown) [Example 244, 1-(4-Fluorobenzyl)-3-(2-methylsulfanylethyl)-2-oxo-1,4,8-triazaspiro[4,5]decan-8-carboxylic acid (3-cyanobenzol)amide]
- BTX Inhibition [3]: 47
- Uptake_5-HT, rat, 1 μM, % inhibition [2]: 52%
- Uptake (NA), rat, 10 μM, % inhibition [4]: 32%

Molecule: CS(=O)(=O)N1CCC2(CC1)NC(Cc1ccccc1)C(=O)N2Cc1ccccc1 (stereo not shown) [Example 246, 1,3-Dibenzyl-8-methansulfonyl-1,4,8-triazaspiro[4,5]decan-2-one]
- inhibition at 10 µM [1]: 50%
